In US8563540B2, “Pyrido[3,2-d]pyrimidine PI3K delta inhibitor compounds and methods of use” (Genetech, Inc., priority 2010, dated 2013):

Columns and labels:
[1] = target: T1, p110 delta (Homo sapiens, UniProt O00329); assay: PI3K Isoform Inhibition Assay, p110 delta; format: biochemical; conditions: PI3K isoform inhibition assay of Example 901
T1 construct: purchased Upstate Group, Millipore; Dundee, UK
Procedure: (§1) PI3K enzymatic activity was assayed by measuring the amount of product phosphatidylinositol […] (PIP3) formed from substrate 4,5 phosphatidylinositol 4,5-phosphate (PIP2) using a fluorescence polarization displacement assay. The decrease in fluorescence polarization of a fluorescent PIP3 probe is measured as it is displaced from a PIP3-binding protein GRP-1 detector by PI3K-catalyzed product. […] The kinase reactions were initiated by the addition of 40 ng/mL p110α/p85α, 300 ng/mL p110β/p85α, 40 ng/mL p110γ, or 40 ng/mL […] (Upstate Group, Millipore; Dundee, UK), and 10 μM PIP2 (Echelon Biosciences) to the wells. […] After 60 minutes of incubation at room temperature to allow equilibration of labeled and unlabeled PIP3 binding, the parallel and perpendicular components of the fluorescence emissions from each sample were measured at an excitation wavelength of 530 nm and an emission wavelength of 590 nm using an Envision fluorescent plate reader with a rhodamine filter (PerkinElmer Life and Analytical Sciences; Wellesley, Mass.). The assay is capable of detecting 0.1-2.0 μM PIP3 product. The IC50 values were obtained by fitting the dose-dependent inhibition data to a 4-parameter equation using Assay Explorer software (MDL, San Ramon, Calif.).
(§2) The Formula I compound was serially diluted in 100% DMSO. The kinase reaction was incubated for 1 h at room temperature, and the reaction was terminated by the addition of PBS. IC50 values were subsequently determined using sigmoidal dose-response curve fit (variable slope).
The four Class I PI 3-kinases are cloned into baculovirus vectors as follows: […]

[2] = target: T2, p110 alpha (Homo sapiens, UniProt P42336); assay: PI3K Isoform Inhibition Assay, p110 alpha (delta/alpha selectivity); conditions: ratio of biochemical IC50 values
T2 construct: purchased Upstate Group, Millipore; Dundee, UK
Procedure: as §1, §2
The same protocol may be used to establish IC50 values for p110α (alpha) PI3K binding. […]

T2 sequence (P42336 whole entry, canonical isoform): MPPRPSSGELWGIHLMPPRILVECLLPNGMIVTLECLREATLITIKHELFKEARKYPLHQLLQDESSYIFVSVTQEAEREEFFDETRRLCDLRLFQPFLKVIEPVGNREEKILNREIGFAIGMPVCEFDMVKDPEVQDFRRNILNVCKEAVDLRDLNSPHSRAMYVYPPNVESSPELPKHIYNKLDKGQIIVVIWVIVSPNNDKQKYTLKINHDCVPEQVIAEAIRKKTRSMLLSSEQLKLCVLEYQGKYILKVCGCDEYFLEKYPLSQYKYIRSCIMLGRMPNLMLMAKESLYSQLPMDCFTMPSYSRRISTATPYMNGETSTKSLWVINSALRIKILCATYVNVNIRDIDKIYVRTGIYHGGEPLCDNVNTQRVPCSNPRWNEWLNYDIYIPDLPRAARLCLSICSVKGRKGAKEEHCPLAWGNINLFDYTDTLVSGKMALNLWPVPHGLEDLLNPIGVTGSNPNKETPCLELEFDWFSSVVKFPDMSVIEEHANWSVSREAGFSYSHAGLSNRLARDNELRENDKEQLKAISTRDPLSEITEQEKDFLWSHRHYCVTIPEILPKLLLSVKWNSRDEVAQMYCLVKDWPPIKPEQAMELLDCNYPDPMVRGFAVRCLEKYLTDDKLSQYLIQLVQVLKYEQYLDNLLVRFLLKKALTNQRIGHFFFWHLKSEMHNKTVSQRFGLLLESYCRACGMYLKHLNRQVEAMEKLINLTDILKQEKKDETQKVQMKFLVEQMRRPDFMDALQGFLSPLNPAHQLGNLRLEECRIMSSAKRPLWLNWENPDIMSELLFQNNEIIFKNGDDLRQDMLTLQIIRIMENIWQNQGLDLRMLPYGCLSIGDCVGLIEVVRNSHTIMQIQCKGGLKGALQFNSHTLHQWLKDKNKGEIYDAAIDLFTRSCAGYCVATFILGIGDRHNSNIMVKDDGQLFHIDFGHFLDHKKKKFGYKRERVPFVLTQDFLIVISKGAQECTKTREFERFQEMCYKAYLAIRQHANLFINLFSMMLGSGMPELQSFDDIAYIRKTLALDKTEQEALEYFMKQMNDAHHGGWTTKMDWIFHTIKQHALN
T2 sequence (P27986 whole entry partner, canonical isoform): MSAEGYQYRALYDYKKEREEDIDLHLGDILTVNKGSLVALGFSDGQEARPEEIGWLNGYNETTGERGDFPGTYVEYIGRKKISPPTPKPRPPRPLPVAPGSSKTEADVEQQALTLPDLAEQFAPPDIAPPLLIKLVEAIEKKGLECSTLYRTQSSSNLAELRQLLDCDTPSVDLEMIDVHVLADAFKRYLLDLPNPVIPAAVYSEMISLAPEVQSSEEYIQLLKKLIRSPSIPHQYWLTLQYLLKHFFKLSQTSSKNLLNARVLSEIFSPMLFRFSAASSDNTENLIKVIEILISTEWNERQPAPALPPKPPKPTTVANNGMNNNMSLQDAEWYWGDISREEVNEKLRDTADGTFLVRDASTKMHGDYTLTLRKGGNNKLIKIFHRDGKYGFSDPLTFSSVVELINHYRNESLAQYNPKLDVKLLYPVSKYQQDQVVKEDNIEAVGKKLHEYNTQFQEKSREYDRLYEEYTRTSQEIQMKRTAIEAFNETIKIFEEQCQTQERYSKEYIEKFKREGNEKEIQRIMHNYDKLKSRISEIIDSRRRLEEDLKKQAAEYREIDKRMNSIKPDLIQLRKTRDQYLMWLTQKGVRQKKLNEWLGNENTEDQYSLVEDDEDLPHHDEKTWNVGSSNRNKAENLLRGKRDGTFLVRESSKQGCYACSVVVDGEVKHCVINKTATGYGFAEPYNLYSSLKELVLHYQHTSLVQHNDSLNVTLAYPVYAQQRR
T1 sequence (O00329 whole entry, canonical isoform): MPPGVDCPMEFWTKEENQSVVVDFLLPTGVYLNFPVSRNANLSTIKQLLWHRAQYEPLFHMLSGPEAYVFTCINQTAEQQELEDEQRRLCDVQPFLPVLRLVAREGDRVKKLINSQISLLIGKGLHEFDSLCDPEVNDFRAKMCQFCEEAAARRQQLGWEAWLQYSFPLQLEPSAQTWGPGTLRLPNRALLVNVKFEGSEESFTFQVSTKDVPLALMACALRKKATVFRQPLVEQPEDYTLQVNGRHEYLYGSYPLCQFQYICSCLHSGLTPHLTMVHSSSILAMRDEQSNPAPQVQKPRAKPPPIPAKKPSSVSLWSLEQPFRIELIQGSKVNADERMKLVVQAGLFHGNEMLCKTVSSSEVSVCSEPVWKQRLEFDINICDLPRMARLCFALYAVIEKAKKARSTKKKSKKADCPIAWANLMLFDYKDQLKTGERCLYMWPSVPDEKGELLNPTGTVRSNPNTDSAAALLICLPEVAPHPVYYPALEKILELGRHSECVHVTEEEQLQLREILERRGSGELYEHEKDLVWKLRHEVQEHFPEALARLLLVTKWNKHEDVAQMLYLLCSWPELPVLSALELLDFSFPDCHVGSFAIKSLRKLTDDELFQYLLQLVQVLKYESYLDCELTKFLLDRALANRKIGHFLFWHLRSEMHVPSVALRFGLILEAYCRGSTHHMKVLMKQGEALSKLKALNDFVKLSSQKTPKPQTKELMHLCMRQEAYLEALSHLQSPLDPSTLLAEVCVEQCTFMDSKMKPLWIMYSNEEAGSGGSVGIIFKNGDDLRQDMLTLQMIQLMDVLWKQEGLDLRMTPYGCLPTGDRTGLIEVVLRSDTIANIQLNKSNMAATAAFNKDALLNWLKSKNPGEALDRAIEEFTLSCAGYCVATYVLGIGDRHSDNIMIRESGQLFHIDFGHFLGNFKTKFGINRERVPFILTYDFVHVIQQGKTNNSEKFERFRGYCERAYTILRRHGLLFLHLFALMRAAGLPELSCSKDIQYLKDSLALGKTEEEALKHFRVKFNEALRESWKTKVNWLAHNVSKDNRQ
T1 sequence (P27986 whole entry partner, canonical isoform): as the sequence (P27986 whole entry partner, canonical isoform) above

IC50 [1] [nM]	IC50 p110 alpha/IC50 p110 delta [2]	Structure (SMILES)
12.5	33	Cc1nc2ccccc2n1-c1nc(N2CCOCC2)c2nc(CN3CCC(C(C)(C)O)CC3)ccc2n1 [Compound 101, 2-(1-((2-(2-methyl-1H-benzo[d]imidazol-1-yl)-4-morpholinopyrido[3,2-d]pyrimidin-6-yl)methyl)piperidin-4-yl)propan-2-ol]
7.94	71	CC(C)(O)C1CCN(Cc2ccc3nc(-n4c(C5CC5)nc5ccccc54)nc(N4CCOCC4)c3n2)CC1 [Compound 102, 2-(1-((2-(2-cyclopropyl-1H-benzo[d]imidazol-1-yl)-4-morpholinopyrido[3,2-d]pyrimidin-6-yl)methyl)piperidin-4-yl)propan-2-ol]
10.5	200	Cc1oc2ccccc2c1-c1nc(N2CCOCC2)c2nc(CN3CCC(C(C)(C)O)CC3)ccc2n1 [Compound 103, 2-(1-((2-(2-methylbenzofuran-3-yl)-4-morpholinopyrido[3,2-d]pyrimidin-6-yl)methyl)piperidin-4-yl)propan-2-ol]
11.8	83	CCn1c(=O)c2ccccc2n1-c1nc(N2CCOCC2)c2nc(CN3CCC(C(C)(C)O)CC3)ccc2n1 [Compound 104, 2-ethyl-1-(6-((4-(2-hydroxypropan-2-yl)piperidin-1-yl)methyl)-4-morpholinopyrido[3,2-d]pyrimidin-2-yl)-1H-indazol-3(2H)-one]
66.9	31	Cc1cc(Nc2nc(N3CCOCC3)c3nc(CN4CCC(C(C)(C)O)CC4)ccc3n2)n[nH]1 [Compound 106, 2-(1-((2-(5-methyl-1H-pyrazol-3-ylamino)-4-morpholinopyrido[3,2-d]pyrimidin-6-yl)methyl)piperidin-4-yl)propan-2-ol]
2.57	5.4	CC(C)(O)C1CCN(Cc2ccc3nc(-c4cnc(N)nc4)nc(N4CCOCC4)c3n2)CC1 [Compound 107, 2-(1-((2-(2-aminopyrimidin-5-yl)-4-morpholinopyrido[3,2-d]pyrimidin-6-yl)methyl)piperidin-4-yl)propan-2-ol]
26.5	13.5	OCc1ccc2nc(-c3c(F)ccc4[nH]ccc34)nc(N3CCOCC3)c2n1 [Compound 108, (2-(5-fluoro-1H-indol-4-yl)-4-morpholinopyrido[3,2-d]pyrimidin-6-yl)methanol]
2.82	>350	CC(C)(O)C1CCN(Cc2ccc3nc(-c4cccc5[nH]ccc45)nc(N4CCOCC4)c3n2)CC1 [Compound 109, 2-(1-((2-(1H-indol-4-yl)-4-morpholinopyrido[3,2-d]pyrimidin-6-yl)methyl)piperidin-4-yl)propan-2-ol]
6.32	21	CC(C)(O)C1CCN(Cc2ccc3nc(-c4cccc5[nH]ncc45)nc(N4CCOCC4)c3n2)CC1 [Compound 110, 2-(1-((2-(1H-indazol-4-yl)-4-morpholinopyrido[3,2-d]pyrimidin-6-yl)methyl)piperidin-4-yl)propan-2-ol]
5.32	281	Fc1ccc2[nH]ccc2c1-c1nc(N2CCOCC2)c2nc(CN3CC(C4CCOCC4)C3)ccc2n1 [Compound 111, 4-(2-(5-fluoro-1H-indol-4-yl)-6-((3-(tetrahydro-2H-pyran-4-yl)azetidin-1-yl)methyl)pyrido[3,2-d]pyrimidin-4-yl)morpholine]
8.52	28.4	CC(C)c1nc2ccccc2n1-c1nc(N2CCOCC2)c2nc(CN3CC(C4CCOCC4)C3)ccc2n1 [Compound 113, 4-(2-(2-isopropyl-1H-benzo[d]imidazol-1-yl)-6-((3-(tetrahydro-2H-pyran-4-yl)azetidin-1-yl)methyl)pyrido[3,2-d]pyrimidin-4-yl)morpholine]
7.11	58	CO[C@H](C)c1nc2ccccc2n1-c1nc(N2CCOCC2)c2nc(CN3CCC(C(C)(C)O)CC3)ccc2n1 [Compound 115, (R)-2-(1-((2-(2-(1-methoxyethyl)-1H-benzo[d]imidazol-1-yl)-4-morpholinopyrido[3,2-d]pyrimidin-6-yl)methyl)piperidin-4-yl)propan-2-ol]
9.33	43	Cc1nc(N)ccc1-c1nc(N2CCOCC2)c2nc(CN3CCC(C(C)(C)O)CC3)ccc2n1 [Compound 116, 2-(1-((2-(6-amino-2-methylpyridin-3-yl)-4-morpholinopyrido[3,2-d]pyrimidin-6-yl)methyl)piperidin-4-yl)propan-2-ol]
5.09	37	COC(=O)C(C)(C)N1CC(Cc2ccc3nc(-n4c(C(C)C)nc5ccccc54)nc(N4CCOCC4)c3n2)C1 [Compound 117, methyl 2-(3-((2-(2-isopropyl-1H-benzo[d]imidazol-1-yl)-4-morpholinopyrido[3,2-d]pyrimidin-6-yl)methyl)azetidin-1-yl)-2-methylpropanoate]
13	77	CC(C)(O)C1CCN(C(=O)c2ccc3nc(-c4c(F)ccc5[nH]ccc45)nc(N4CCOCC4)c3n2)CC1 [Compound 118, (2-(5-fluoro-1H-indol-4-yl)-4-morpholinopyrido[3,2-d]pyrimidin-6-yl)(4-(2-hydroxypropan-2-yl)piperidin-1-yl)methanone]
87.8	15	CC(C)c1nc2ccccc2n1-c1nc(N2CCOCC2)c2nc(C(=O)N3CCC(C(C)(C)O)CC3)ccc2n1 [Compound 119, (4-(2-hydroxypropan-2-yl)piperidin-1-yl)(2-(2-isopropyl-1H-benzo[d]imidazol-1-yl)-4-morpholinopyrido[3,2-d]pyrimidin-6-yl)methanone]
2.31	45	CC(F)(F)c1nc2ccccc2n1-c1nc(N2CCOCC2)c2nc(CN3CCC(C(C)(C)O)CC3)ccc2n1 [Compound 120, 2-(1-((2-(2-(1,1-difluoroethyl)-1H-benzo[d]imidazol-1-yl)-4-morpholinopyrido[3,2-d]pyrimidin-6-yl)methyl)piperidin-4-yl)propan-2-ol]
1.29	203	CC(C)(C(N)=O)N1CCN(Cc2ccc3nc(-c4c(F)ccc5[nH]ccc45)nc(N4CCOCC4)c3n2)CC1 [Compound 121, 2-(4-((2-(5-fluoro-1H-indol-4-yl)-4-morpholinopyrido[3,2-d]pyrimidin-6-yl)methyl)piperazin-1-yl)-2-methylpropanamide]
5.42	15	CC(C)(O)C1CCN(Cc2ccc3nc(-c4ccc(N)nc4)nc(N4CCOCC4)c3n2)CC1 [Compound 122, 2-(1-((2-(6-aminopyridin-3-yl)-4-morpholinopyrido[3,2-d]pyrimidin-6-yl)methyl)piperidin-4-yl)propan-2-ol]
4.48	55	CC(C)(C(N)=O)N1CCN(Cc2ccc3nc(-c4c[nH]c5ccccc45)nc(N4CCOCC4)c3n2)CC1 [Compound 123, 2-(4-((2-(1H-indol-3-yl)-4-morpholinopyrido[3,2-d]pyrimidin-6-yl)methyl)piperazin-1-yl)-2-methylpropanamide]
2.03	14	CC(C)(C(N)=O)N1CCN(Cc2ccc3nc(-c4ccc(N)nc4)nc(N4CCOCC4)c3n2)CC1 [Compound 124, 2-(4-((2-(6-aminopyridin-3-yl)-4-morpholinopyrido[3,2-d]pyrimidin-6-yl)methyl)piperazin-1-yl)-2-methylpropanamide]
1.52	246	Fc1ccc2[nH]ccc2c1-c1nc(N2CCOCC2)c2nc(CN3CC(N4CCC(F)(F)CC4)C3)ccc2n1 [Compound 125, 4-(6-((3-(4,4-difluoropiperidin-1-yl)azetidin-1-yl)methyl)-2-(5-fluoro-1H-indol-4-yl)pyrido[3,2-d]pyrimidin-4-yl)morpholine]
1.14	257	Fc1ccc2[nH]ccc2c1-c1nc(N2CCOCC2)c2nc(CN3CC(N4CCOCC4)C3)ccc2n1 [Compound 126, 4-(1-((2-(5-fluoro-1H-indol-4-yl)-4-morpholinopyrido[3,2-d]pyrimidin-6-yl)methyl)azetidin-3-yl)morpholine]
1.75	141	O=C1CN(C2CN(Cc3ccc4nc(-c5c(F)ccc6[nH]ccc56)nc(N5CCOCC5)c4n3)C2)CCN1 [Compound 127, 4-(1-((2-(5-fluoro-1H-indol-4-yl)-4-morpholinopyrido[3,2-d]pyrimidin-6-yl)methyl)azetidin-3-yl)piperazin-2-one]
81.9	26	CC(C)(O)C1CCN(Cc2ccc3nc(-n4ccc5ccccc54)nc(N4CCOCC4)c3n2)CC1 [Compound 128, 2-(1-((2-(1H-indol-1-yl)-4-morpholinopyrido[3,2-d]pyrimidin-6-yl)methyl)piperidin-4-yl)propan-2-ol]
